Assay results published in patent publication EP3925949A1, “AZIDO COMPOUNDS AND METHOD FOR MONITORING ACID CERAMIDASE ACTIVITY IN INTACT CELLS USING THEM” (Consejo Superior de Investigaciones Científicas (CSIC), priority 2020, dated 2021).

Assays:
[1] = target: T1, ACER2 (Homo sapiens, UniProt Q5QJU3); experiment: Hydrolysis of RBM5-177 by microsomes of ACER2 overexpressing cells, UPLC-HRMS; assay type: biochemical; conditions: microsomes from ACER2 overexpressing cells, RBM5-177 5 µM, 30 min
T1 construct: expressed in transfected cells; host or cells: HeLa T-Rex ACER2-TET-ON, tetracycline-induced; microsomes
Method: Cell lysates obtained from HeLa T-Rex ACER1-TET-ON, HeLa T-Rex ACER2-TET-ON and MEF5 overexpressing ACER3 cells were transferred to ultracentrifuge tubes and were spun at 100000 g for 1 h at 4°C. Pellets were resuspended in a 0.25 M saccharose solution and protein concentration was determined as specified below.
Cells were seeded at 5 × 10^5 cells/mL into 6 well plates (1 mL/well) and were allowed to adhere for 24 h. Medium was replaced with fresh medium containing RBM5-177, RBM5-019 or RBM2-37 (5 µM final concentration). After 30 min, medium was removed; cells were washed with 400 µL PBS and harvested with 400 µL Trypsin-EDTA and 600 µL of medium. NC recombinant enzyme, lysates from A375-AC overexpressing cells, MEF5 or microsomes from HeLa T-Rex ACER1-TET-ON and HeLa T-Rex […] activity buffer. Cell pellets were resuspended with 100 µL of H2O and mixed with 750 µL of methanol: chloroform, 2:1. Samples were heated at 48°C overnight and next day, 75 µL of 1 M KOH in methanol were added, followed by 2 h incubation at 37°C. Afterwards, the saponification was neutralised with 75 µL of 1 M acetic acid and solvent was removed using a Speed Vac Savant SPD131 DDA (Thermo Scientific). […]

[2] = target: T2, acid ceramidase (AC) (Homo sapiens, UniProt Q13510); experiment: AC activity-dependence of labelling (fluorescence confocal microscopy); assay type: cell-based; set-up: expressed in transfected cells; host or cells: FD/AC (overexpressing AC); conditions: FD/AC cells, SOCLAC 5 µM 1 h pretreatment, RBM5-177 5 µM 4 h
T2 sequence (Q13510 143-395 limits assumed): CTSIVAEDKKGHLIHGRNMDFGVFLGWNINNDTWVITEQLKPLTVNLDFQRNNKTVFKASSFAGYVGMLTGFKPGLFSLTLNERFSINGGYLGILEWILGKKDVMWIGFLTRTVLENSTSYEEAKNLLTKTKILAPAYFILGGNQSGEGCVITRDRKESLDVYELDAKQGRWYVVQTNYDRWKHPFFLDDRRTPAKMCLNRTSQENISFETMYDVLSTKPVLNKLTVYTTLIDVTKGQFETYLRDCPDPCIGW
T2 sequence (Q13510 22-142 limits assumed): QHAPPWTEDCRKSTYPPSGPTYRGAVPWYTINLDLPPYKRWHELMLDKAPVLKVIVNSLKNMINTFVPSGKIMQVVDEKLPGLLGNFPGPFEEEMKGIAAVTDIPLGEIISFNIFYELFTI
Method: Cells were seeded at 1 × 10^5 cells/mL on glass-bottom plates and allowed to adhere for 24 h. For golgi staining, cells were incubated with 40 µL/well of CellLight Golgi-RFP BacMam 2.0 for 24 h. […] After this time, the medium was replaced with fresh medium containing CO-1 (1 µM final concentration), and cells were incubated for 10 min. Then cells were washed 3 times with DMEM for 5 min at 37 °C, 75 nM LysoTracker Red DND-99 or 75 nM Mitotracker in phenol red-free DMEM was added to stain lysosomes or mitochondria, and cells were kept in the incubator for microscope analysis. Staining was viewed with a Zeiss LSM 880 confocal microscope or Leica TCS SP8-Hyvolution. Image analysis was performed using Fiji software.^[7] To measure the Manders's and Pearson's coefficients a threshold including organelles and discarding the background was set. Co-localization coefficients were measured using the JaCoP plugin (S. Bolte et al. J. Microsc. 2006, 224, 213-232) on the different stacks of images (at least n=4) with each stack containing 3-10 cells.

SMILES | RBM5-19 formation (hydrolysis as substrate) [1] | effect on lysosome labelling by RBM5-177/CO-1 [2]
CCCCCCCC(=O)N[C@@H](C)[C@H](O)CCCCCCCCCCCCN=[N+]=[N-] [RBM5-177, N-((2S,3R)-15-azido-3-hydroxypentadecan-2-yl)octanamide] | transformed into the free amine only by AC | 
CCCCCCCCCCCCC/C=C/[C@@H](O)[C@H](CO)NC(=O)CCl [SOCLAC] |  | no lysosomal labelling occurred
